Where a name gives a salt, the structure may show the parent alone.
Test system: Acinetobacter baumannii ATCC 17961
Experiment: Antimicrobial susceptibility testing: 90% growth inhibitory concentration (IC90) determination
Format: cell-based
Settings: ATCC17961, Acinetobacter baumannii ATCC 17961, Iso-Sensitest broth, read-out: ATCC 17961 IC90
Method in brief: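 Broth microdilution in Iso-Sensitest medium, twofold series (e.g. 50 to 0.097 μM final), ~5×10^5 CFU/ml inoculum, 35±2 °C. OD600 read every 20 min over 16 h. IC90 derived from growth inhibition during logarithmic phase.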

Row | Structure (SMILES) | IC90 [nM]
1 | Cn1c(-c2cn(C3CCC3)nc2C(F)(F)F)cnc1C(=O)Nc1ccc(C(=O)N2CCN(C(=O)NC3CNC3)CC2)c(Cl)c1 [Example 150, N-(azetidin-3-yl)-4-[2-chloro-4-[[5-[1-cyclobutyl-3-(trifluoromethyl)pyrazol-4-yl]-1-methylimidazole-2-carbonyl]amino]benzoyl]piperazine-1-carboxamide] | 324
2 | Cn1c(-c2cn(Cc3cccnc3)nc2C(F)(F)F)cnc1C(=O)Nc1ccc(C(=O)N2CCN(C(=O)[C@H]3C[C@H](N)C3)CC2)c(Cl)c1 [Example 63, rac-N-(4-(4-((1r,3r)-3-aminocyclobutane-1-carbonyl)piperazine-1-carbonyl)-3-chlorophenyl)-1-methyl-5-(1-(pyridin-3-ylmethyl)-3-(trifluoromethyl)-1H-pyrazol-4-yl)-1H-imidazole-2-carboxamide trihydrochloride] | 517
3 | Cn1c(-c2cn(CCF)nc2C(F)(F)F)cnc1C(=O)Nc1ccc(C(=O)N2CCN(C(=O)NC3CNC3)CC2)c(Cl)c1 [Example 144, N-(azetidin-3-yl)-4-[2-chloro-4-[[5-[1-(2-fluoroethyl)-3-(trifluoromethyl)pyrazol-4-yl]-1-methylimidazole-2-carbonyl]amino]benzoyl]piperazine-1-carboxamide;formic acid] | 621
4 | Cn1c(-c2cn(C3CC3)nc2C(F)(F)F)cnc1C(=O)Nc1ccc(C(=O)N[C@H]2C[C@@H](N)C2)c(Cl)c1 [Example 97, N-[4-[(3-aminocyclobutyl)carbamoyl]-3-chlorophenyl]-5-[1-cyclopropyl-3-(trifluoromethyl)pyrazol-4-yl]-1-methylimidazole-2-carboxamide] | 595
5 | C#CCn1cc(-c2cnc(C(=O)Nc3ccc(C(=O)NCCOC[C@@H](C)N)c(Cl)c3)n2C)c(C(F)(F)F)n1 [Example 45, (R)-N-(4-((2-(2-aminopropoxy)ethyl)carbamoyl)-3-chlorophenyl)-1-methyl-5-(1-(prop-2-yn-1-yl)-3-(trifluoromethyl)-1H-pyrazol-4-yl)-1H-imidazole-2-carboxamide 2,2,2-trifluoroacetate] | 262
6 | CCc1cc(NC(=O)c2ncc(-c3cn(CC#N)nc3C(F)(F)F)n2C)ccc1C(=O)N1CCN(C(=O)C2(O)CCNCC2)CC1 [Example 129, 5-[1-(cyanomethyl)-3-(trifluoromethyl)pyrazol-4-yl]-N-[3-ethyl-4-[4-(4-hydroxypiperidine-4-carbonyl)piperazine-1-carbonyl]phenyl]-1-methylimidazole-2-carboxamide;formic acid] | 949
7 | CCc1cc(NC(=O)c2ncc(-c3cn(CC#N)nc3C(F)(F)F)n2C)ccc1C(=O)N1CCN(C(=O)[C@@H]2CCNC2)CC1 [Example 130, 5-[1-(cyanomethyl)-3-(trifluoromethyl)pyrazol-4-yl] N-[3-ethyl-4-[4-[(3R)-pyrrolidine-3-carbonyl]piperazine-1-carbonyl]phenyl]-1-methylimidazole-2-carboxamide;formic acid] | 947
8 | Cn1c(-c2cn(CC3(CO)CC(C)(Cl)C3)nc2C(F)(F)F)cnc1C(=O)Nc1ccc(C(=O)N2CCN(C(=O)C3CCNCC3)CC2)c(Cl)c1 (centres unmarked) [Example 105, 5-[1-[[3-chloro-1-(hydroxymethyl)-3-methylcyclobutyl]methyl]-3-(trifluoromethyl)pyrazol-4-yl]-N-[3-chloro-4-[4-(piperidine-4-carbonyl)piperazine-1-carbonyl]phenyl]-1-methylimidazole-2-carboxamide;hydrochloride] | 1610
9 | Cn1c(-c2cn(C3CCN(C4CC4)C3=O)nc2C(F)(F)F)cnc1C(=O)Nc1ccc(C(=O)N2CCN(C(=O)C3CCNCC3)CC2)c(Cl)c1 (centres unmarked) [Example 26, N-(3-chloro-4-(4-(piperidine-4-carbonyl)piperazine-1-carbonyl)phenyl)-5-(1-(1-cyclopropyl-2-oxopyrrolidin-3-yl)-3-(trifluoromethyl)-1H-pyrazol-4-yl)-1-methyl-1H-imidazole-2-carboxamide formate] | 1910
10 | C#CCn1cc(-c2cnc(C(=O)Nc3ccc(C(N)=O)c(Cl)c3)n2C)c(C(F)(F)F)n1 [Example 41, N-(4-Carbamoyl-3-chlorophenyl)-1-methyl-5-(1-(prop-2-yn-1-yl)-3-(trifluoromethyl)-11-pyrazol-4-yl)-1H-imidazole-2-carboxamide] | 801

Second part, the molecule after the results:

Row | IC90 [nM] | Structure (SMILES)
11 | 173 | CN(CCCCN)C(=O)c1ccc(NC(=O)c2ncc(-c3cn(C4CC4)nc3C(F)(F)F)n2C)cc1Cl [Example 190, N-(4-((4-aminobutyl)(methyl)carbamoyl)-3-chlorophenyl)-5-(1-cyclopropyl-3-(trifluoromethyl)-1H-pyrazol-4-yl)-1-methyl-1H-imidazole-2-carboxamide hydrochloride]
12 | 136 | Cn1c(-c2cn(C3CC3(F)F)nc2C(F)(F)F)cnc1C(=O)Nc1ccc(C(=O)N[C@H]2[C@@H]3CN(C(=O)N4CCNCC4)C[C@@H]32)c(Cl)c1 (stereo partly drawn) [Example 184, N-(3-chloro-4-(((1R,5S,6s)-3-(piperazine-1-carbonyl)-3-azabicyclo[3.1.0]hexan-6-yl)carbamoyl)phenyl)-5-(1-(2,2-difluorocyclopropyl)-3-(trifluoromethyl)-1H-pyrazol-4-yl)-1-methyl-1H-imidazole-2-carboxamide]
13 | 485 | Cn1c(-c2cn(CC3CCC3)nc2C(F)(F)F)cnc1C(=O)Nc1ccc(C(=O)N2CCNCC2)c(Cl)c1 [Example 371, N-(3-chloro-4-(piperazine-1-carbonyl)phenyl)-5-(1-(cyclobutylmethyl)-3-(trifluoromethyl)-1H-pyrazol-4-yl)-1-methyl-1H-imidazole-2-carboxamide dihydrochloride]
14 | 267 | Cn1c(-c2cn(C3CC3)nc2C(F)(F)F)cnc1C(=O)Nc1ccc(C(=O)N2CCN(C(=O)NC3CNC3)CC2)c(Cl)c1 [Example 233, N-(azetidin-3-yl)-4-[2-chloro-4-[[5-[1-cyclopropyl-3-(trifluoromethyl)pyrazol-4-yl]-1-methyl-imidazole-2-carbonyl]amino]benzoyl]pipera-zine-1-carboxamide; formic acid]
15 | 485 | Cn1c(-c2cn(CC3CC3)nc2C(F)(F)F)cnc1C(=O)Nc1ccc(C(=O)N2CCN(C(=O)N[C@@H]3CC[C@@H](N)C3)CC2)c(Cl)c1 [Example 369, N-((1R,3R)-3-aminocyclopentyl)-4-(2-chloro-4-(5-(1-(cyclopropylmethyl)-3-(trifluoromethyl)-1H-pyrazol-4-yl)-1-methyl-1H-imidazole-2-carboxamido)benzoyl)piperazine-1-carboxamide]
16 | 466 | CN(C)CCN(C)C1CCN(C(=O)c2ccc(NC(=O)c3ncc(-c4cn(C5CC5)nc4C(F)(F)F)n3C)cc2Cl)CC1 [Example 357, N-(3-chloro-4-(4-((2-(dimethylamino)ethyl)(methyl)amino)piperidine-1-carbonyl)phenyl)-5-(1-cyclopropyl-3-(trifluoromethyl)-1H-pyrazol-4-yl)-1-methyl-1H-imidazole-2-carboxamide]
17 | 250 | C#CCn1cc(-c2cnc(C(=O)Nc3ccc(C(=O)NCCOCC(C)(C)N)c(CC)c3)n2C)c(C(F)(F)F)n1 [Example 222, N-[4-[2-(2-amino-2-methyl-propoxy)ethylcarbamoyl]-3-ethyl-phenyl]-1-methyl-5-[1-prop-2-ynyl-3-(trifluoromethyl)pyrazol-4-yl]imidazole-2-carboxamide; formic acid]
18 | 241 | Cn1c(-c2cn(C3CC3)nc2C(F)(F)F)cnc1C(=O)Nc1ccc(C(=O)N2CCN(C(=O)NCC3CNC3)CC2)c(Cl)c1 [Example 214, N-(azetidin-3-ylmethyl)-4-(2-chloro-4-(5-(1-cyclopropyl-3-(trifluoromethyl)-1H-pyrazol-4-yl)-1-methyl-1H-imidazole-2-carboxamido)benzoyl)piperazine-1-carboxamide formate]
19 | 479 | Cn1c(-c2cn(CC#N)nc2C(F)(F)F)cnc1C(=O)Nc1ccc(C(=O)N[C@H]2C[C@@H](NC(=O)N3CCCC3CN)C2)c(Cl)c1 (some centres unmarked) [Example 361, N-[4-[[3-[[2-(aminomethyl)pyrrolidine-1-carbonyl]amino]cyclobutyl]car-bamoyl]-3-chloro-phenyl]-5-[1-(cyanomethyl)-3-(trifluoromethyl)pyrazol-4-yl]-1-methyl-imidazole-2-carboxamide; formic acid]
20 | 398 | Cn1c(-c2cn(C3CC3(F)F)nc2C(F)(F)F)cnc1C(=O)Nc1ccc(C(=O)NC2CC3CNCC32)c(Cl)c1 (centres unmarked) [Example 319, N-(4-((3-azabicyclo[3.2.0]heptan-6-yl)carbamoyl)-3-chlorophenyl)-5-(1-(2,2-difluorocyclopropyl)-3-(trifluoromethyl)-1H-pyrazol-4-yl)-1-methyl-1H-imidazole-2-carboxamide formate]
21 | 458 | Cn1c(-c2cn(CCC3CC3)nc2C(F)(F)F)cnc1C(=O)Nc1ccc(C(=O)N2CCN(C(=O)C3CCNCC3)CC2)c(Cl)c1 [Example 352, N-(3-chloro-4-(4-(piperidine-4-carbonyl)piperazine-1-carbonyl)phenyl)-5-(1-(2-cyclopropylethyl)-3-(trifluoromethyl)-1H-pyrazol-4-yl)-1-methyl-1H-imidazole-2-carboxamide hydrochloride]
22 | 110 | Cn1c(-c2cn(CC(F)F)nc2C(F)(F)F)cnc1C(=O)Nc1ccc(C(=O)N[C@H]2[C@@H]3CN(C(=O)N[C@@H]4CNC[C@H]4O)C[C@@H]32)c(Cl)c1 [Example 386, (1R,5S,6s)-6-(2-chloro-4-(5-(1-(2,2-difluoroethyl)-3-(trifluoromethyl)-1H-pyrazol-4-yl)-1-methyl-1H-imidazole-2-carboxamido)benzamido)-N-((3R,4R)-4-hydroxypyrrolidin-3-yl)-3-azabicyclo[3.1.0]hexane-3-carboxamide formate]
23 | 283 | C#CCn1cc(-c2cnc(C(=O)Nc3ccc(C(=O)NCCOCCN)c(CC)c3)n2C)c(C(F)(F)F)n1 [Example 242, N-[4-[2-(2-aminoethoxy)ethylcarbamoyl]-3-ethyl-phenyl]-1-methyl-5-[1-prop-2-ynyl-3-(trifluoromethyl)pyrazol-4-yl]imidazole-2-carboxamide; formic acid]
